# Target: T1, hCA II (Homo sapiens, UniProt P00918)
# T1 construct: gene CA2; recombinant human CA II, obtained in-house
# Assay: stopped-flow CO2 hydration assay
# Type: biochemical
# Settings: not given
# Text: stopped-flow CO2 hydration assay on hCA II
row,Structure (SMILES),Ki
1,"CC(C)C(C#N)N1CCN(CC(=O)NCc2ccccn2)CC1 (stereo not drawn) [compound 17, Z1176496598]",0.78 µM
2,"CCNC(=O)CCCC(=O)N1CCN(C(C#N)c2ccccc2)CC1 (stereo not drawn) [compound 18, Z1185260979]",0.93 µM
3,"CC(C)C(C#N)N1CCN(c2ncnc3ccsc23)CC1 (stereo not drawn) [compound 16, Z1251205249]",0.97 µM

# Other lines, results leading:
row,Ki,Structure (SMILES)
1,0.68 µM,"Cn1cc(CN2CCN(C(C#N)c3ccccc3)CC2)c(-c2cccnc2)n1 (stereo not drawn) [compound 50, Z1470771430]"
2,3.7 µM,"COc1ccc(C(=O)N2CCN(C(C#N)C(C)C)CC2)cc1OC(F)F (stereo not drawn) [compound 46, Z1126852482]"
3,29.8 µM,"CC(C)C(C#N)N1CCN(C(=O)CSc2ccc(Br)cc2)CC1 (stereo not drawn) [compound 36, Z1167646026]"
4,20.4 µM,"CC(C)C(C#N)N1CCN(C(=O)C2CCCO2)CC1 (stereo not drawn) [compound 39, Z1167645477]"
5,0.91 µM,"COc1ccc(C(C#N)N2CCN(C(=O)C3CCCCC3)CC2)cc1 (stereo not drawn) [compound 30, Z146384300]"
6,0.86 µM,"CNS(=O)(=O)CCCN1CCN(C(C#N)c2ccccc2)CC1 (stereo not drawn) [compound 32, Z1395303258]"
7,38.2 µM,"CC(C)C(C#N)N1CCN(Cc2nccn2CC(F)(F)F)CC1 (stereo not drawn) [compound 47, Z1176495724]"
8,0.76 µM,"CCc1noc(CC)c1CC(=O)N1CCN(C(C#N)C(C)C)CC1 (stereo not drawn) [compound 31, Z1390085782]"
9,60.5 µM,"Cc1ccccc1CN1CCN(C(=O)CN2CCN(C(C#N)C(C)C)CC2)CC1 (stereo not drawn) [compound 35, Z1171402445]"

# Same assay, conditions: CO2 […]; […] Hepes pH […]; […] Na2SO4; room temperature; […] min pre-incubation
row,Structure (SMILES),Ki
1,"CC1(C)CN(C(C#N)c2ccc(Cl)cc2)CCO1 (stereo not drawn) [compound 13, Z1097120891]",7.4 µM
2,"Cc1cnc(C(=O)N2CCN(Cc3ccccc3)C(C#N)C2)cn1 (stereo not drawn) [compound 20, Z1204317166]",100 µM
3,"COc1ccc(C(C#N)N2CCN(C(=O)c3ccc(Br)cc3)CC2)cc1 (stereo not drawn) [compound 4, Z118259550]",> 100 µM
4,"N#CC(c1ccccc1)N1CCN(C(=O)C2CCN(S(=O)(=O)c3ccccc3F)CC2)CC1 (stereo not drawn) [compound 8, Z118260178]",74.3 µM
5,"CCC(CC)c1cc(C(=O)N2CCN(C(C#N)C(C)C)CC2)on1 (stereo not drawn) [compound 22, Z1261078980]",> 100 µM
6,"N#Cc1nccnc1N1CCN(Cc2ccccc2)C(C#N)C1 (stereo not drawn) [compound 21, Z1205181012]",> 100 µM
7,"CC(C)C(C#N)N1CCN(C(=O)c2scnc2C(C)(C)C)CC1 (stereo not drawn) [compound 23, Z1322755479]",9.1 µM
8,"COc1ccc(C(C#N)N2CCN(C(=O)c3ccc(S(=O)(=O)N4CCCCCC4)cc3)CC2)cc1 (stereo not drawn) [compound 9, Z118259626]",> 100 µM
9,"N#CC(c1ccccc1)N1CCN(C(=O)c2ccccc2)CC1 (stereo not drawn) [compound 10, Z146786712]",53.7 µM
10,"CC(C)C(C#N)N1CCN(c2ncnc3cc(F)ccc23)CC1 (stereo not drawn) [compound 15, Z1251205230]",> 100 µM
11,"N#CC(c1c(F)cccc1Cl)N1CCC(N2CCCC2=O)CC1 (stereo not drawn) [compound 25, Z1298979831]",36.1 µM
12,"N#CC(c1c(F)cccc1Cl)N1CCCC(N2CCNC2=O)C1 (stereo not drawn) [compound 24, Z1298330150]",16 µM
13,"COc1ccc(C(C#N)N2CCN(C(=O)c3ccc4[nH]c5c(c4c3)CC(C)CC5)CC2)cc1 (stereo not drawn) [compound 7, Z118259780]",> 100 µM
14,"N#CC(C1CCCCC1)N1CCN(C(=O)CCc2ccccn2)CC1 (stereo not drawn) [compound 12, Z913897024]",40.9 µM
15,"CCNC(=O)C1CCCN(C(C#N)c2c(F)cccc2Cl)C1 (stereo not drawn) [compound 14, Z1230758078]",9.3 µM
16,"N#CC(Nc1ccc(F)cc1)c1ccco1 (stereo not drawn) [compound 5, Z131022682]",8.1 µM
17,"N#CC1CN(C(=O)CCc2ccsc2)CCN1Cc1ccccc1 (stereo not drawn) [compound 19, Z1204316164]",9.6 µM

# Results, then the compound that gave them:
row,Ki,Structure (SMILES)
1,8.9 µM,"N#CC(c1ccccc1)N1CCN(CC(=O)NC2CCOCC2)CC1 (stereo not drawn) [compound 28, Z1317906129]"
2,2.3 µM,"N#CC(c1ccccc1)N1CCN(CC2CCOC2)CC1 (stereo not drawn) [compound 37, Z1395305944]"
3,40.9 µM,"CC(C)C(C#N)N1CCN(C(=O)CN2CCOC(c3ccc(F)cc3)C2)CC1 (stereo not drawn) [compound 45, Z1567277098]"
4,5 µM,"Cc1ccc(N(CC(=O)N2CCN(C(C#N)C(C)C)CC2)C(C)C)cc1 (stereo not drawn) [compound 34, Z1567293695]"
5,> 100 µM,"N#CC1COCCN1 (stereo not drawn) [compound 43, Z1198234963]"
6,5 µM,"N#CC(c1ccc(Br)cc1)N1CCN(CCN2C(=O)CNC2=O)CC1 (stereo not drawn) [compound 38, Z1567199718]"
7,3 µM,"CNC(=O)C1CCN(C(C#N)c2c(F)cccc2Cl)CC1 (stereo not drawn) [compound 26, Z1297989190]"
8,5.3 µM,"N#CC(c1ccccc1)N1CCN(CC(=O)NCC2CCC2)CC1 (stereo not drawn) [compound 33, Z1395304494]"
9,3.5 µM,"N#CC(c1ccccc1)N1CCN(CC(=O)NCC(F)(F)F)CC1 (stereo not drawn) [compound 49, Z1317905463]"
10,35.1 µM,"Cc1ccc(C(=O)NCC(=O)N2CCN(C(C#N)C(C)C)CC2)cc1 (stereo not drawn) [compound 41, Z1416783341]"
11,3.7 µM,"N#CC(c1ccccc1)N1CCN(Cc2cccnc2)CC1 (stereo not drawn) [compound 29, Z1317905741]"
12,> 100 µM,"CC(C)C(C#N)N1CCN(C(=O)C/C=C/c2cccc(F)c2)CC1 (stereo not drawn) [compound 27, Z1343956502]"
13,5.5 µM,"Cc1ccc(C(=O)C2CCN(CC(=O)N3CCN(C(C#N)C(C)C)CC3)CC2)cc1 (stereo not drawn) [compound 48, Z1567280757]"
14,41.9 µM,"CC(C#N)N1CCN(C(=O)OC(C)(C)C)CC1 (stereo not drawn) [compound 40, Z1124717499]"

# Target: T2, bCA (Bos taurus, UniProt P00921)
# T2 construct: gene CA2; commercial bovine carbonic anhydrase
# T2 sequence (P00921 2-260): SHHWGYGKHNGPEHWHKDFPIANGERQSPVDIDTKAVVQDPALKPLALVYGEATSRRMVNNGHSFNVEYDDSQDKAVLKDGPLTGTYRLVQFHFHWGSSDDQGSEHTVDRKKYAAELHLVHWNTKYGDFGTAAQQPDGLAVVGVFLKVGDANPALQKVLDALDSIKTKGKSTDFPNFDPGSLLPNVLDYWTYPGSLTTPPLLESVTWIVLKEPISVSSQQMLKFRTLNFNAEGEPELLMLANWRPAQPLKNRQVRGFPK
# Assay: biochemical
# Design: Differential scanning fluorimetry (SYPRO Orange) melting temperature shift of bCA, 20 uM compound
# Settings: not given
# Experimental: (§1) Thermal shift assay was carried out using ViiA™ 7 Real-Time PCR System equipped with 384-well block (Applied Biosystems, USA). The TSA procedure was adopted from the literature[6–8] and was modified in order to allow measuring the bCA melting temperature on interaction with various compounds, including the known CA inhibitor azetazolamide (AZ)[9], which was used in this study as a reference bCA binder at 10 and 20 µM concentration. For 800-compound screening, the test reactions were set up in the following buffer: 10 mM NaH2PO4/Na2HPO4, pH 7.0, 10 mM NaCl. The total volume of the reaction mixture per well was 10 µL. Carbonic anhydrase (Sigma Aldrich Cat# C3934) in 300 µg/mL concentration was pre-mixed with environment-sensitive SYPRO orange dye (Invitrogen, Cat# S6650) at final concentration in the reaction of 10 ×, with regard to the stock concentration stated by the vendor. The mixtures were pre-incubated for 1 h at 4 °C with 20 µM concentrations of the compounds (and 1% final concentration of DMSO), placed into MicroAmp® Optical 384-Well Reaction Plate (ThermoFisher, Cat# 4309849). The reaction mixture was kept at room temperature for 15 min to ensure full protein-compound interactions. The temperature was raised at 1.6 °C/s rate to 40 °C without signal reading. Starting from 40 °C up to 85 °C the heating rate was set to 0.05 °C/s with constant fluorescence reading, using 470/623 nm filter set. The raw data of dye fluorescence intensity change upon melting of the protein were obtained from the instrument ViiA 7 RUO software. Further data processing and visualisation was performed by custom-made Microsoft Excel scripts. The peak of the first derivative for the fluorescence curve was used to define melting temperature Tm. Tm for DMSO control wells, having only protein, dye and 1% DMSO was used as a To to determine melting temperature shifts (ΔTm). All measurements were made in quadruplicates.
row,Structure (SMILES),ΔTm at 20 µM
1,"CC(C)C(C#N)N1CCN(CC(=O)NCc2ccccn2)CC1 (stereo not drawn) [compound 17, Z1176496598]",1.14 °C
2,"CCNC(=O)CCCC(=O)N1CCN(C(C#N)c2ccccc2)CC1 (stereo not drawn) [compound 18, Z1185260979]",1.41 °C
3,"CC(C)C(C#N)N1CCN(c2ncnc3ccsc23)CC1 (stereo not drawn) [compound 16, Z1251205249]",1.5 °C

# Continued, values first:
row,ΔTm at 20 µM,Structure (SMILES)
1,1.37 °C,"Cn1cc(CN2CCN(C(C#N)c3ccccc3)CC2)c(-c2cccnc2)n1 (stereo not drawn) [compound 50, Z1470771430]"
2,1.64 °C,"COc1ccc(C(C#N)N2CCN(C(=O)C3CCCCC3)CC2)cc1 (stereo not drawn) [compound 30, Z146384300]"
3,1.55 °C,"CCc1noc(CC)c1CC(=O)N1CCN(C(C#N)C(C)C)CC1 (stereo not drawn) [compound 31, Z1390085782]"
4,1.82 °C,"Cc1ccccc1CN1CCN(C(=O)CN2CCN(C(C#N)C(C)C)CC2)CC1 (stereo not drawn) [compound 35, Z1171402445]"

# Target: T2, bCA
# Assay: biochemical
# Design: differential scanning fluorimetry (thermal shift) with SYPRO Orange, bovine carbonic anhydrase
# Settings: not given
# Remark: another data set of the same source
# Experimental: as §1, with “For” for “Thermal shift assay was carried out using ViiA™ 7 Real-Time PCR System equipped with 384-well block (Applied Biosystems, USA). The TSA procedure was adopted from the literature[6–8] and was modified in order to allow measuring the bCA melting temperature on interaction with various compounds, including the known CA inhibitor azetazolamide (AZ)[9], which was used in this study as a reference bCA binder at 10 and 20 µM concentration. For”, “quadruplicates. Thermal shift assay was carried out using ViiA™ 7 Real-Time PCR System equipped with 384-well block (Applied Biosystems, USA). The TSA procedure was adopted from the literature[6–8] and was modified in order to allow measuring the bCA melting temperature on interaction with various compounds, including the known CA inhibitor azetazolamide (AZ)[9], which was used in this study as a reference bCA binder at 10 and 20 µM concentration.” for “quadruplicates.”
row,ΔTm at 20 µM,Structure (SMILES)
1,1.19 °C,CC(C)C(C#N)N1CCN(Cc2nccn2CC(F)(F)F)CC1 (stereo not drawn) [compound 47]
2,1.37 °C,COc1ccc(C(=O)N2CCN(C(C#N)C(C)C)CC2)cc1OC(F)F (stereo not drawn) [compound 46]
3,1.64 °C,CC(C)C(C#N)N1CCN(C(=O)C2CCCO2)CC1 (stereo not drawn) [compound 39]
4,1.64 °C,CC(C)C(C#N)N1CCN(C(=O)CSc2ccc(Br)cc2)CC1 (stereo not drawn) [compound 36]
